Assay results as given in patent US6440978B2, “Therapeutic agent for dermatitis” (Nippon Zoki Pharmaceutical Co., Ltd., priority 2000, dated 2002).

Key:
[1] = biological target: T1, phosphodiesterase type II (PDE II) (Homo sapiens, UniProt O00408); test: Inhibitory action against phosphodiesterase type II; format: biochemical; conditions: 100 μM; PDE II from human platelets
T1 construct: phosphodiesterase type II (PDE II) partially purified from human platelets; from tissue; host or cells: human platelets
T1 sequence (O00408 whole entry): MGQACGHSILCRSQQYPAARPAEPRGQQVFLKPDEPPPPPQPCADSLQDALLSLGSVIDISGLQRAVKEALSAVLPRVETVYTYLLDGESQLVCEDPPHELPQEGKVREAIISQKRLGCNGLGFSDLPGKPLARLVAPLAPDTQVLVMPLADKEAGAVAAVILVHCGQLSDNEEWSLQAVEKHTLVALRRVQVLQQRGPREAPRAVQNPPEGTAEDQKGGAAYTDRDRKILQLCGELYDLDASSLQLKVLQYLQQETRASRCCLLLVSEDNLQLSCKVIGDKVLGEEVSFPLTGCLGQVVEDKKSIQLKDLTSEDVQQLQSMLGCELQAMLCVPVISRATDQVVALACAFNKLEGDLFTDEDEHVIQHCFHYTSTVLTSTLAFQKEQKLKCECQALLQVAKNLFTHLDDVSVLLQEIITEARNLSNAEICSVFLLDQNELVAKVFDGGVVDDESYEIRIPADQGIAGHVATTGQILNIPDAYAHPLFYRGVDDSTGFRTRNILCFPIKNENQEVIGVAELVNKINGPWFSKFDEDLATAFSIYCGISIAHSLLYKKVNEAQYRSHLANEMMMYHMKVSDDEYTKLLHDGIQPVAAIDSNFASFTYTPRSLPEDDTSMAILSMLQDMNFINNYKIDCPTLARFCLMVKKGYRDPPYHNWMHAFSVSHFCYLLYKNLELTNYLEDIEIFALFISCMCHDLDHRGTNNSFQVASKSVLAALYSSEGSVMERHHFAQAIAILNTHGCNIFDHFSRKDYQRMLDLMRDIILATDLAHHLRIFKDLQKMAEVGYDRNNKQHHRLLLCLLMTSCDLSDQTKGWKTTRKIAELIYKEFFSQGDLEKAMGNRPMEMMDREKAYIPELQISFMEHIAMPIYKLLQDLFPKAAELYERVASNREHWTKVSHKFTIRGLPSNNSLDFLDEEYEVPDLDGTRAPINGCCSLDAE
From the text: (§1) The inhibitory action of the compounds of the present invention against activities of various phosphodiesterase (PDE) isozymes were investigated using the conventional method. Each of the inhibitory action of the compounds of the present invention on the activities of phosphodiesterase type II (PDE II) partially purified from human platelets, phosphodiesterase type III […] partially purified from human platelets, phosphodiesterase type IV (PDE IV) partially purified from human U937 promonocytic leukemia cells and phosphodiesterase type V (PDE V) partially purified from human platelets were measured.

[2] = biological target: T2, phosphodiesterase type V (PDE V) (Homo sapiens, UniProt O76074); test: Inhibitory action against phosphodiesterase type V; format: biochemical; conditions: 100 μM; PDE V from human platelets
T2 construct: phosphodiesterase type V (PDE V) partially purified from human platelets; from tissue; host or cells: human platelets
From the text: as §1

[3] = tested on: antigen-induced flare-up reaction in a mouse; test: Suppressive action against antigen-induced flare-up reaction in a mouse; format: in vivo, BALB/c female mice; conditions: 3% ointment
Method: Seven week old BALB/c female (SPF) mice of were selected as subjects. According to a method of Tanaka, et al. (Allergy, 46, pages 42-48(1997)), egg white albumin (final concentration: 2 μg/mL) and aluminum hydroxide gel (final concentration: 10 mg/mL) were suspended in physiological saline and 0.5 mL of the suspension was administered to effect intraperitoneal sensitization on the first day of the test. On the 14th day of the test, an additional sensitization was carried out under the same conditions. Further, on the 28th day of the test, 25 μL of egg albumin (a 20 μg/mL solution in physiological saline) was intradermally administered to the right ear of a mouse to induce a swelling reaction.
This swelling reaction reached its peak at 4 hours after the challenge by the antigen. Even after 24 to 48 hours, a significant swelling reaction was noted as compared with the control in which antigen was merely challenged (not sensitized). […] On the contrary, the swelling from 24 to 48 hours after the challenge is thought to be the so-called delayed-type swelling reaction accompanied by infiltration of eosinophils, neutrophils and lymphocytes. In addition, a flare-up reaction having a peak at 24 hours after the challenge appeared on the ear of the antigen-induced site. Like swelling, flare-up is an important symptom of inflammation. Although the mechanism of the flare-up reaction is ambiguous, it may be a flare-up reaction of a delayed type in view of the time course of its expression. As such, this model animal in which the inflammation of both immediate and delayed types are induced is appropriate as a model animal for atopic dermatitis. In the following experiment, the effectiveness of the therapeutic agent for dermatitis according to the present invention was tested using the said model animal.
Each of a vehicle (control) and an agent for the test (the therapeutic agent for dermatitis according to the present invention or a positive control) was applied to the antigen-induced site (right auricle) of a mouse to induce a swelling reaction in accordance with Example 2 at 2 hours before and 4 hours after the challenge. The right ear was observed by naked eye and the degree of flare-up was scored according to the following standard:
1: in such a degree that a flare-up was confirmed, the color is clear red or pale red and the size was small
2: between score 3 and score 1
3: color of the flare-up was clearly red and the size of the flare-up was big

[4] = tested on: phosphodiesterase type IV (PDE IV); test: Inhibitory action against phosphodiesterase type IV; format: biochemical, human
From the text: as §1

[5] = biological target: T3, phosphodiesterase type III (Homo sapiens, UniProt Q14432); test: Inhibitory action against phosphodiesterase type III; format: biochemical; conditions: 100 μM; PDE III from human platelets
T3 construct: phosphodiesterase type III […] partially purified from human platelets; from tissue; host or cells: human platelets
T3 sequence (Q14432 whole entry): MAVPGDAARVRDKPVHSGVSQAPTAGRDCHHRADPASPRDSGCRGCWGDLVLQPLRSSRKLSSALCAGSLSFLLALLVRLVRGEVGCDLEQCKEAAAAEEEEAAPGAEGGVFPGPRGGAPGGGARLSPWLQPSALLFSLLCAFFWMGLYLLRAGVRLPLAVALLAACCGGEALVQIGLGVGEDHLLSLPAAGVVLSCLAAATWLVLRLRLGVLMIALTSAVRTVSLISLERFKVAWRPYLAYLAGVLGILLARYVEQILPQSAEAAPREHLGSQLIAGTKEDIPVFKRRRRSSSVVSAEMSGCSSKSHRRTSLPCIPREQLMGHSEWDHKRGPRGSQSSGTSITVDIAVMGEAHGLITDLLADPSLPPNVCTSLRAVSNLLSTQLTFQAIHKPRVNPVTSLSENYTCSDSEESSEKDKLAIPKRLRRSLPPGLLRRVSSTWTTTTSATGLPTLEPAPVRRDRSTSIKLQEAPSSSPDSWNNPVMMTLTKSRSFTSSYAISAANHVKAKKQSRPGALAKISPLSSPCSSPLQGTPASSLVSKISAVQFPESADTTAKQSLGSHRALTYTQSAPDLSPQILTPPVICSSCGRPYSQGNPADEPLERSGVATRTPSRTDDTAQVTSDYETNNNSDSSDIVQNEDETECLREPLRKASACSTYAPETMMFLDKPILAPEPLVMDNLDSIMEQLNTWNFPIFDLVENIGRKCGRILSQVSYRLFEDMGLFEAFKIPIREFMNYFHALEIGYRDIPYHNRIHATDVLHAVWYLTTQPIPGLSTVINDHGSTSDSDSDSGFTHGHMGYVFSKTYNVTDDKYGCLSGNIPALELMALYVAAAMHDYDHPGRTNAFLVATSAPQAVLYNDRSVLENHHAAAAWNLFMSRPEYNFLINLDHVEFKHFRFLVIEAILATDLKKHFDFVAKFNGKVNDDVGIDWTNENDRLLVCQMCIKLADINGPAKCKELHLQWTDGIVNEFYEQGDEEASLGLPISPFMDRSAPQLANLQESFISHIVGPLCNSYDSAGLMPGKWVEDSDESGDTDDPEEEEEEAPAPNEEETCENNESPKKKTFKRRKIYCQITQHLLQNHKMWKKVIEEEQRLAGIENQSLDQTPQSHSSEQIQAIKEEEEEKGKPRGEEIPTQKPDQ
From the text: as §1

Nc1ccc2c(=O)n(Cc3ccccc3)c(=O)n(-c3ccccc3)c2n1 [Compound 1, 7-amino-3-benzyl-1,2,3,4-tetrahydro-1-phenylpyrido[2,3-d]pyrimidin-2,4-dione]
suppression activity against PDE II [1]: 6% | suppression activity against PDE V [2]: 15% | Suppression Rate of flare-up score at 4 hr after Challenge ([3]; 4 hr after challenge): (0.0%) | Flare-up Score at 4 hr after Challenge ([3]; 4 hr after challenge, score 0-3): 0.8 ± 0 | Suppression Rate of flare-up score at 24 hr after Challenge ([3]; 24 hr after challenge): (32.0%) | Flare-up Score at 24 hr after Challenge ([3]; 24 hr after challenge, score 0-3): 1.7 ± 0.2 | dose dependence of PDE IV inhibitory effect [4]: dose dependent | suppression activity against PDE IV ([4]; 100 μM, PDE IV from human U937 promonocytic leukemia cells): 82% | PDE isozyme selectivity ([4]; PDE IV versus PDE II, III and V at 100 μM): PDE IV selective inhibitory effect | suppression activity against PDE III [5]: 22%
